# Experimental data: ChEMBL document CHEMBL5154921, “Discovery and Characterization of the First Nonpeptide Antagonists for the Relaxin-3/RXFP3 System” (J Med Chem, 2022)
# pKi: −log10 of the molar value. Active and inactive are the calls of the source. No cut-off for these calls is given here.
# Experiments:
# [1] = target: 5-hydroxytryptamine receptor 1D (Homo sapiens) (UniProt P28221); assay: Inhibition of serotonin 5-HT1D receptor (unknown origin) at 10 uM relative to control
# [2] = target: D(4) dopamine receptor (Homo sapiens) (UniProt P21917); assay: Inhibition of dopamine D4 receptor (unknown origin) at 10 uM relative to control
# Sequence of D(4) dopamine receptor (Homo sapiens) (P21917 whole entry): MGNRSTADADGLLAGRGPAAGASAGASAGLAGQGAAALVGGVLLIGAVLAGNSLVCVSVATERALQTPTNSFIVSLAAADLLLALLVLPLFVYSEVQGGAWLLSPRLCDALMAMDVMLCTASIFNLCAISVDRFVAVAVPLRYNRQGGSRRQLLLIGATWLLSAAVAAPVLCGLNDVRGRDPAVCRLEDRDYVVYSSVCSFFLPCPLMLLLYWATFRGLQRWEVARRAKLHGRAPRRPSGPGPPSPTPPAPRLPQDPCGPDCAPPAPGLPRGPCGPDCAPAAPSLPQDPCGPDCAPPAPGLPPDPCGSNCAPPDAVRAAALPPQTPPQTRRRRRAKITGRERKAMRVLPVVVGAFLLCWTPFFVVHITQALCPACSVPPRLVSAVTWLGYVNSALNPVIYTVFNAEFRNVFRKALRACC
# [3] = target: 5-hydroxytryptamine receptor 2A (Homo sapiens) (UniProt P28223); assay: Inhibition of serotonin 5-HT2A receptor (unknown origin) at 10 uM relative to control
# [4] = target: 5-hydroxytryptamine receptor 2B (Homo sapiens) (UniProt P41595); assay: Inhibition of serotonin 5-HT2B receptor (unknown origin) at 10 uM relative to control
# Sequence of 5-hydroxytryptamine receptor 2B (Homo sapiens) (P41595 whole entry): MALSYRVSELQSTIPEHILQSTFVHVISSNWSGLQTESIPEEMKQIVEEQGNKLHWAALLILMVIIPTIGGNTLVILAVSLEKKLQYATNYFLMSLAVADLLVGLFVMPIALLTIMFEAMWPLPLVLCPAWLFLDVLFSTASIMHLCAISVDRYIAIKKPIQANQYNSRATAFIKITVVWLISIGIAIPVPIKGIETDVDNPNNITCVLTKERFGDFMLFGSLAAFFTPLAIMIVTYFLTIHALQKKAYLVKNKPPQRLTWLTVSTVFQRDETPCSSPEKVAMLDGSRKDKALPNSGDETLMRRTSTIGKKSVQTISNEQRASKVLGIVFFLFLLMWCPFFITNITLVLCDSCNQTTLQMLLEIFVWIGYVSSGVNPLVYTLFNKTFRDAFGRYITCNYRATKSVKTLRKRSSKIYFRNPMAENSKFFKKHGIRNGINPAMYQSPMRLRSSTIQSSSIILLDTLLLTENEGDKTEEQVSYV
# [5] = target: Alpha-1D adrenergic receptor (Homo sapiens) (UniProt P25100); assay: Inhibition of adrenergic alpha-1D receptor (unknown origin) at 10 uM relative to control
# Sequence of Alpha-1D adrenergic receptor (Homo sapiens) (P25100 whole entry): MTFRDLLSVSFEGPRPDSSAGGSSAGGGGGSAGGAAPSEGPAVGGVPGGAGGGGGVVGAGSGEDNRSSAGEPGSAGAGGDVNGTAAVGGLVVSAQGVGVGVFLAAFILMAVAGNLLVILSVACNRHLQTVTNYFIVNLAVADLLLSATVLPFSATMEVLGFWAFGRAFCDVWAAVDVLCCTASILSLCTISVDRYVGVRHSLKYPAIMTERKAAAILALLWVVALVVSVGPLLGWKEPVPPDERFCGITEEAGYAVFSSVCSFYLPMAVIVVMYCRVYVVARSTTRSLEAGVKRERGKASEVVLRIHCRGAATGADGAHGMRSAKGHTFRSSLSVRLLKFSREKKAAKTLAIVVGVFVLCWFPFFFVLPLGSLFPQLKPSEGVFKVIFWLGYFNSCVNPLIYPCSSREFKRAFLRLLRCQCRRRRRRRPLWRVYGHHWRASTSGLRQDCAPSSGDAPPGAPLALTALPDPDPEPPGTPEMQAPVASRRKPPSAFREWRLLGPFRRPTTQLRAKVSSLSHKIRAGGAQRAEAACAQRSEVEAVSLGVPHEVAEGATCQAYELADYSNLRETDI
# [6] = target: 5-hydroxytryptamine receptor 1A (Homo sapiens) (UniProt P08908); assay: Inhibition of serotonin 5-HT1A receptor (unknown origin) at 10 uM relative to control
# [7] = target: 5-hydroxytryptamine receptor 2C (Homo sapiens) (UniProt P28335); assay: Inhibition of 5HT2C receptor (unknown origin) at 10 uM relative to control
# [8] = target: 5-hydroxytryptamine receptor 1B (Homo sapiens) (UniProt P28222); assay: Inhibition of serotonin 5-HT1B receptor (unknown origin) at 10 uM relative to control
# [9] = target: Sodium-dependent serotonin transporter (Homo sapiens) (UniProt P31645); assay: Inhibition of SERT receptor (unknown origin) at 10 uM relative to control
# Homo sapiens = species on record: Homo sapiens; assay: Inhibition of GABAA receptor (unknown origin) at 10 uM relative to control
# [10] = target: Beta-1 adrenergic receptor (Homo sapiens) (UniProt P08588); assay: Inhibition of adrenergic beta-1 receptor (unknown origin) at 10 uM relative to control
# Sequence of Beta-1 adrenergic receptor (Homo sapiens) (P08588 whole entry, looked up): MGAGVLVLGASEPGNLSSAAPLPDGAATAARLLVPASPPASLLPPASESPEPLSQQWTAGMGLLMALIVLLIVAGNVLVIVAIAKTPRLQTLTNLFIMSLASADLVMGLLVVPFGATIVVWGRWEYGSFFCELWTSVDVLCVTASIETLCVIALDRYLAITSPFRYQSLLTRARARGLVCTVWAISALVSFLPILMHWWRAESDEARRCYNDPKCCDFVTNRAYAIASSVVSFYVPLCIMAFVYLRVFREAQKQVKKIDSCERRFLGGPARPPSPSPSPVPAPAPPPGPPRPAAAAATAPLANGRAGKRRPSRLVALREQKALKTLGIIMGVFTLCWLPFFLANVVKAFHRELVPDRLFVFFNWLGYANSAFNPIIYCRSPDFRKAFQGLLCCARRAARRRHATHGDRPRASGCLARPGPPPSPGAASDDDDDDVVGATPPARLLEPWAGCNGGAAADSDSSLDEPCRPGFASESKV
# [11] = target: Histamine H3 receptor (Homo sapiens) (UniProt Q9Y5N1); assay: Inhibition of histamine H3 receptor (unknown origin) at 10 uM relative to control
# [12] = target: D(2) dopamine receptor (Homo sapiens) (UniProt P14416); assay: Inhibition of dopamine D2 receptor (unknown origin) at 10 uM relative to control
# Sequence of D(2) dopamine receptor (Homo sapiens) (P14416 whole entry): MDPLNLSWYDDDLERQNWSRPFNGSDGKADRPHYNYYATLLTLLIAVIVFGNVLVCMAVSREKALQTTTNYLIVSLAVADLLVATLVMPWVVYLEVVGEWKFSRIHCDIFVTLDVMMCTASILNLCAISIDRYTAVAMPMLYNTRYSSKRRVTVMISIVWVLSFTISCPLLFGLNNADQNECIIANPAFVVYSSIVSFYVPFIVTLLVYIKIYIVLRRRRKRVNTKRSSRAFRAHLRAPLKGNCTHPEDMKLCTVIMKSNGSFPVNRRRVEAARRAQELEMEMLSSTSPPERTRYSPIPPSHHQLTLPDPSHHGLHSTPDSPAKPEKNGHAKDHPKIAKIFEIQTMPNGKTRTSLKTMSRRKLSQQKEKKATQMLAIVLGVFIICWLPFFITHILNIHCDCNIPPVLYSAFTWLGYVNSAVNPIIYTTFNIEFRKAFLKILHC
# Rattus norvegicus = assay: In vivo antagonist activity at RXFP3 in Wistar rat assessed as decrease in R3/I5 induced food intake at 10 mg/kg, ip administered 1 hr prior to R3/I5 treatment and measured after 2 hrs; format: functional, organism-based; conditions: time 3.0 hrs
# [13] = target: D(1B) dopamine receptor (Homo sapiens) (UniProt P21918); assay: Inhibition of dopamine D5 receptor (unknown origin) at 10 uM relative to control
# [14] = target: Alpha-1B adrenergic receptor (Homo sapiens) (UniProt P35368); assay: Inhibition of adrenergic alpha-1B receptor (unknown origin) at 10 uM relative to control
# [15] = target: Sigma intracellular receptor 2 (Homo sapiens, UniProt Q5BJF2); assay: Inhibition of sigma-2 receptor (unknown origin)
# [16] = target: D(1A) dopamine receptor (Homo sapiens) (UniProt P21728); assay: Inhibition of dopamine D1 receptor (unknown origin) at 10 uM relative to control
# Sequence of D(1A) dopamine receptor (Homo sapiens) (P21728 whole entry): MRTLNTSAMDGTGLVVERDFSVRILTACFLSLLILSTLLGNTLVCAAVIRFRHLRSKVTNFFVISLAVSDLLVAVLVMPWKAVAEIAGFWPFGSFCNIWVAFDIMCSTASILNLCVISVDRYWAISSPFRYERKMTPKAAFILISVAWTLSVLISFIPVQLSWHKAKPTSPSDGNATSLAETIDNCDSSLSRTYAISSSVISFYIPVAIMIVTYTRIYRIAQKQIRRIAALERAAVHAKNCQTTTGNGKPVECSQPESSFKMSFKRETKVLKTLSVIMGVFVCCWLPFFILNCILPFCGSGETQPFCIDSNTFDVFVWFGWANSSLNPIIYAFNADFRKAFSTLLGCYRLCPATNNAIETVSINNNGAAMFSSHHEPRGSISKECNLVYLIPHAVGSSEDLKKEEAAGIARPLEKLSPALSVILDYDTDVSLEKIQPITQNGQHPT
# [17] = Tmax in Wistar rat plasma at 10 mg/kg, ip measured upto 8 hrs post dose by LC-MS/MS analysis; format: ADME, organism-based; conditions: in vivo
# [18] = Cmax in Wistar rat plasma at 10 mg/kg, ip measured upto 8 hrs post dose by LC-MS/MS analysis; format: ADME, organism-based; design: time < 8 hrs, dose 10 mg/kg, route ip; conditions: in vivo
# [19] = AUCinfinity in Wistar rat brain at 10 mg/kg, ip measured upto 8 hrs post dose by LC-MS/MS analysis; format: ADME, organism-based; design: dose 10 mg/kg, time < 8 hrs, route ip
# [20] = AUCinfinity in Wistar rat plasma at 10 mg/kg, ip measured upto 8 hrs post dose by LC-MS/MS analysis; format: ADME, organism-based; design: dose 10 mg/kg, time < 8 hrs, route ip; conditions: in vivo
# [21] = Half life in Wistar rat plasma at 10 mg/kg, ip measured upto 8 hrs post dose by LC-MS/MS analysis; format: ADME, organism-based; conditions: in vivo
# [22] = target: 5-hydroxytryptamine receptor 6 (Homo sapiens) (UniProt P50406); assay: Inhibition of serotonin 5-HT6 receptor (unknown origin) at 10 uM relative to control
# [23] = target: 5-hydroxytryptamine receptor 7 (Homo sapiens) (UniProt P34969); assay: Inhibition of serotonin 5-HT7A receptor (unknown origin) at 10 uM relative to control
# Sequence of 5-hydroxytryptamine receptor 7 (Homo sapiens) (P34969 whole entry): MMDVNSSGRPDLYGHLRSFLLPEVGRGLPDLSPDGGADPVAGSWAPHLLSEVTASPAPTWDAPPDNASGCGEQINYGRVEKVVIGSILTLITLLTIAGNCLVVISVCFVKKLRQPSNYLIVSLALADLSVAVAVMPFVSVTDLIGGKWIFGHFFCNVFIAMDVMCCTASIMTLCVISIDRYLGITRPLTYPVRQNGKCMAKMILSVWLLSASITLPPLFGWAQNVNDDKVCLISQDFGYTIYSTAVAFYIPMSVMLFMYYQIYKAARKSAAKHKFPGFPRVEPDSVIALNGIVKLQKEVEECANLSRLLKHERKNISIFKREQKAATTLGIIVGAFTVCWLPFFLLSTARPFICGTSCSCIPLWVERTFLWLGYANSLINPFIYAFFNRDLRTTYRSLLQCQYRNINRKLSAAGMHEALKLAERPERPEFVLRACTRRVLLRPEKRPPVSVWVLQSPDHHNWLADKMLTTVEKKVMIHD
# [24] = Kinetic aqueous solubility of the compound in PBS at pH 7.4 measured after 2 hrs by LC/MS-MS method; format: physicochemical; conditions: buffer, pH 7.4, 2 h
# [25] = Ratio of AUC in brain to plasma or Wistar rat at 10 mg/kg, ip measured upto 8 hrs post dose by LC-MS/MS analysis; format: ADME, organism-based
# [26] = Tmax in Wistar rat brain at 10 mg/kg, ip measured upto 8 hrs post dose by LC-MS/MS analysis; format: ADME, organism-based; conditions: in vivo
# [27] = target: Alpha-2A adrenergic receptor (Homo sapiens) (UniProt P08913); assay: Inhibition of adrenergic alpha-2A receptor (unknown origin) at 10 uM relative to control
# Sequence of Alpha-2A adrenergic receptor (Homo sapiens) (P08913 whole entry): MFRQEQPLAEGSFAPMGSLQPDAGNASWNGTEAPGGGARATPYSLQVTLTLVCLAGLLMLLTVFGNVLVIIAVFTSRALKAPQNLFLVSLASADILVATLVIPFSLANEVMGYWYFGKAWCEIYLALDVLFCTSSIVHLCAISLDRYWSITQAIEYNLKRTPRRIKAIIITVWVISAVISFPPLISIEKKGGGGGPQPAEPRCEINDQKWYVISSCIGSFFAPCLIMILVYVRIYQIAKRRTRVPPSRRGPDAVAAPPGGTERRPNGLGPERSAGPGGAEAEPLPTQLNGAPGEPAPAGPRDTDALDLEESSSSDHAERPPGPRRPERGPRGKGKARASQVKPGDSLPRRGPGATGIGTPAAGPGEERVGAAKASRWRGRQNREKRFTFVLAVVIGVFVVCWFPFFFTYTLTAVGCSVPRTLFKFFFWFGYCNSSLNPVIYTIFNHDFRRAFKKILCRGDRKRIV
# [28] = target: 5-hydroxytryptamine receptor 1E (Homo sapiens) (UniProt P28566); assay: Inhibition of serotonin 5-HT1E receptor (unknown origin) at 10 uM relative to control
# Sequence of 5-hydroxytryptamine receptor 1E (Homo sapiens) (P28566 whole entry): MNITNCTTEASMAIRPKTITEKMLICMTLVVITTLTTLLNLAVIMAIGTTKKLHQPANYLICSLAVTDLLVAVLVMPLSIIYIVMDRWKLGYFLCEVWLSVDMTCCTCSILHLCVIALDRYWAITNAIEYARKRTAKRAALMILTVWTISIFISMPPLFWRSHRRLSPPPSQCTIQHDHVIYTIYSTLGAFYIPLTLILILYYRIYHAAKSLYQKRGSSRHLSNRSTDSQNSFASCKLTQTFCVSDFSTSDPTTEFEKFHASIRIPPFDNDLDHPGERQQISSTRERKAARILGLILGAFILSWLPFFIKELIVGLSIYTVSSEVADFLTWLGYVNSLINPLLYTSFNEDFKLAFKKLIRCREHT
# [29] = target: Relaxin-3 receptor 2 (Homo sapiens) (UniProt Q8TDU9); assay: Antagonist activity at human RXFP4 expressed […]-K1 cells assessed as forskolin-induced cAMP accumulation at 100 uM incubated for 30 mins in presence of relaxin 3 relative to control; format: functional, cell-based; design: scale not given: the % may be the effect or the level left
# Sequence of Relaxin-3 receptor 2 (Homo sapiens) (Q8TDU9 whole entry): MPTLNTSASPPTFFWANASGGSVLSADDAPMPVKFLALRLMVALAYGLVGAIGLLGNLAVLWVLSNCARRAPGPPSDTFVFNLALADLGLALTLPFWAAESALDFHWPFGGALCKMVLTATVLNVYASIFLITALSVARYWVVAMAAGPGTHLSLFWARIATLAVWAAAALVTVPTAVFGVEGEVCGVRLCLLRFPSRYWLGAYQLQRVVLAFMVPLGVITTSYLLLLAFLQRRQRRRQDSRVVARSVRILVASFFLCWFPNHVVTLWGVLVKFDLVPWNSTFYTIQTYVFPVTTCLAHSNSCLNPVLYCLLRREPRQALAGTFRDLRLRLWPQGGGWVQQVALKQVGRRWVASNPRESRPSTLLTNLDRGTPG
# Sequence of 5-hydroxytryptamine receptor 1D (Homo sapiens) (P28221 whole entry): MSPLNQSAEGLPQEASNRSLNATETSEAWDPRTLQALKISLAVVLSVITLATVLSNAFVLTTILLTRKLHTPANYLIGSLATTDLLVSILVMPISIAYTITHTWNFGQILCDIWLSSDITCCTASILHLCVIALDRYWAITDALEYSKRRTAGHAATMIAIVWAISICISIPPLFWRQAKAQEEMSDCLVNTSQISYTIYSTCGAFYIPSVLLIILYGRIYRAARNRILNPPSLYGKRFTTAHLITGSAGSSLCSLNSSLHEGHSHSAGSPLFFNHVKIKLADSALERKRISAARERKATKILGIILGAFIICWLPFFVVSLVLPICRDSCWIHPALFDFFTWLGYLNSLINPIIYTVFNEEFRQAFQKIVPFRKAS
compound,measurement,setting,value
O=C(Nc1ccc(-c2nc(-c3ccc(Cl)cc3)no2)cc1)C1CC(=O)N(Cc2ccco2)C1 (stereo unspecified),inhibition,[1],< 50%
same,inhibition,[2],< 50%
same,inhibition,[3],< 50%
same,inhibition,[4],< 50%
same,inhibition,[5],< 50%
same,inhibition,[6],< 50%
same,inhibition,[7],53%
same,inhibition,[8],< 50%
same,inhibition,[9],< 50%
same,inhibition,Homo sapiens,< 50%
same,inhibition,[10],< 50%
same,inhibition,[11],< 50%
same,inhibition,[12],< 50%
same,Activity,Rattus norvegicus,Active
same,inhibition,[13],< 50%
same,inhibition,[14],< 50%
same,pKi,[15],5.49
same,inhibition,[16],< 50%
same,Tmax,[17],0.5 h
same,Cmax,[18],1401 ng/mL
same,AUC(0-inf),[19],12.5 ng·h/mL
same,AUC,[20],5352 ng·h/mL
same,t1/2,[21],1.9 h
same,inhibition,[22],< 50%
same,inhibition,[23],< 50%
same,Kinetic_solubility,[24],< 1 µM
same,Ratio,[25],2.3
same,Tmax,[26],2 h
same,inhibition,[27],< 50%
same,inhibition,[28],< 50%
same,Activity,[29],< 30%
